Assays:
[1] = target: 5-hydroxytryptamine receptor 2B (Homo sapiens, UniProt P41595); format: functional, cell-based
Glucocorticoid receptor = target: T1, Glucocorticoid receptor (Homo sapiens, UniProt P04150)
T1 sequence (P04150 whole entry): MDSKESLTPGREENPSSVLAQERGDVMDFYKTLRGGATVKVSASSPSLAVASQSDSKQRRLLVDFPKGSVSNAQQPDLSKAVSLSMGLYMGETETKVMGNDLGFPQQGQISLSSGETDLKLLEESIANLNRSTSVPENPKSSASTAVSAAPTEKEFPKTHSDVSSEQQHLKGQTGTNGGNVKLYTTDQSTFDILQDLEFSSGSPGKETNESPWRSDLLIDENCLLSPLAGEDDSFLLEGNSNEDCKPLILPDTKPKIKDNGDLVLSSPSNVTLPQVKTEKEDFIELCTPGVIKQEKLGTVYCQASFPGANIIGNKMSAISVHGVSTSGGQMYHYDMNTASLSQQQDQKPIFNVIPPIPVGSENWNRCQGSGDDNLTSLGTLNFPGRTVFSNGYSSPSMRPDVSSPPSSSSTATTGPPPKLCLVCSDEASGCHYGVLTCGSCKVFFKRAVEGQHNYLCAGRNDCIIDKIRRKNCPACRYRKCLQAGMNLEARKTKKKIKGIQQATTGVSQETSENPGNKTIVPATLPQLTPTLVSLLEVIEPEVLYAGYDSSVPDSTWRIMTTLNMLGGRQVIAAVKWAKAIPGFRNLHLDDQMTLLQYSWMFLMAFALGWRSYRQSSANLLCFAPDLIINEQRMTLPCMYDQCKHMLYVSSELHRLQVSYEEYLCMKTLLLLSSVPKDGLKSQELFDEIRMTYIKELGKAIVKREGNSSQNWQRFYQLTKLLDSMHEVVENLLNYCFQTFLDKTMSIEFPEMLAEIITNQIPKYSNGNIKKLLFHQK

[2] = target: Prostaglandin G/H synthase 1 (Homo sapiens, UniProt P23219); format: functional
Histamine H3 receptor = Histamine H3 receptor (Homo sapiens, UniProt Q9Y5N1)
Endothelin-1 receptor = target: T2, Endothelin-1 receptor (Homo sapiens, UniProt P25101)
T2 sequence (P25101 whole entry): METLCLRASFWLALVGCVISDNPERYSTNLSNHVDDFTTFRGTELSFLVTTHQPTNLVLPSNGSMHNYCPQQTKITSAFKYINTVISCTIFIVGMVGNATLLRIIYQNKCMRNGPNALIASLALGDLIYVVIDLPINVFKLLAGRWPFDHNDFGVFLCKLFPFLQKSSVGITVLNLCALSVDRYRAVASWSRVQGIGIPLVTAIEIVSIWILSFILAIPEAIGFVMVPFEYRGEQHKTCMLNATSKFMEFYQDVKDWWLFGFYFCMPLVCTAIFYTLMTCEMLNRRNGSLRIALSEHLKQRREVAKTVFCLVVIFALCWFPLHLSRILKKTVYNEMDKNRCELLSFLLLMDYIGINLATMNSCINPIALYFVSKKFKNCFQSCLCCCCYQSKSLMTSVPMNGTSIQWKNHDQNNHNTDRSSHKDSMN

[3] = target: 5-hydroxytryptamine receptor 2A (Homo sapiens, UniProt P28223); format: functional, cell-based
Mu-type opioid receptor = Mu-type opioid receptor (Homo sapiens, UniProt P35372)
Histamine H2 receptor = Histamine H2 receptor (Homo sapiens, UniProt P25021); format: functional, cell-based
Note: assay procedure not described here.

Prostaglandin G/H synthase 1, sequence (P23219 whole entry): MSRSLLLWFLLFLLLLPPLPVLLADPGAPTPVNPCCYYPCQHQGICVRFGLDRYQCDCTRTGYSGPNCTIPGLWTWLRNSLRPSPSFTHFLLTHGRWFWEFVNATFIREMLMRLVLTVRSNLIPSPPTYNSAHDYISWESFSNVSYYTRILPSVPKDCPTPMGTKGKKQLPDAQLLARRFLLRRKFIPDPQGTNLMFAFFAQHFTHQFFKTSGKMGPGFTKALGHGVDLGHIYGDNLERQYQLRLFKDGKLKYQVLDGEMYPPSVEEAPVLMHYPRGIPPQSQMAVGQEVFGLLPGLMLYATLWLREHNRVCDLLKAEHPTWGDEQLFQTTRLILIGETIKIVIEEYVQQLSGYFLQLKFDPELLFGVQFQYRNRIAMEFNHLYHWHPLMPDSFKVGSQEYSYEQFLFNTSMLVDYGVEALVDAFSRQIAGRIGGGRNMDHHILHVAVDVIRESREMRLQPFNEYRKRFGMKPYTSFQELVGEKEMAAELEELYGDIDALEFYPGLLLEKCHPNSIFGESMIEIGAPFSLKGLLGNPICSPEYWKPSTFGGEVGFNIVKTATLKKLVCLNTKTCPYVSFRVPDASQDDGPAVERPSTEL
5-hydroxytryptamine receptor 2B, sequence (P41595 whole entry): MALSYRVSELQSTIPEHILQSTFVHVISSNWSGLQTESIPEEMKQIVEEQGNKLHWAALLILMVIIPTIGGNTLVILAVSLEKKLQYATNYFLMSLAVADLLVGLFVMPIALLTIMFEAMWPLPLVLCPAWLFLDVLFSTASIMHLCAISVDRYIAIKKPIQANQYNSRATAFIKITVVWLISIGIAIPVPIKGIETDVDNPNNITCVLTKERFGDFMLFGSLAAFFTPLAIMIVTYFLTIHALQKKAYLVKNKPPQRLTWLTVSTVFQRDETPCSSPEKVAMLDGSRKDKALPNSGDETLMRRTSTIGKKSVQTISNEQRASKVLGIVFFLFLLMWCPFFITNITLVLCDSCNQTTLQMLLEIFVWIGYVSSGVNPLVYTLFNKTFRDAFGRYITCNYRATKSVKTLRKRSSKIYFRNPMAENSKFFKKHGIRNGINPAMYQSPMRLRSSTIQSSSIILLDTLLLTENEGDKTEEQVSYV
5-hydroxytryptamine receptor 2A, sequence (P28223 whole entry): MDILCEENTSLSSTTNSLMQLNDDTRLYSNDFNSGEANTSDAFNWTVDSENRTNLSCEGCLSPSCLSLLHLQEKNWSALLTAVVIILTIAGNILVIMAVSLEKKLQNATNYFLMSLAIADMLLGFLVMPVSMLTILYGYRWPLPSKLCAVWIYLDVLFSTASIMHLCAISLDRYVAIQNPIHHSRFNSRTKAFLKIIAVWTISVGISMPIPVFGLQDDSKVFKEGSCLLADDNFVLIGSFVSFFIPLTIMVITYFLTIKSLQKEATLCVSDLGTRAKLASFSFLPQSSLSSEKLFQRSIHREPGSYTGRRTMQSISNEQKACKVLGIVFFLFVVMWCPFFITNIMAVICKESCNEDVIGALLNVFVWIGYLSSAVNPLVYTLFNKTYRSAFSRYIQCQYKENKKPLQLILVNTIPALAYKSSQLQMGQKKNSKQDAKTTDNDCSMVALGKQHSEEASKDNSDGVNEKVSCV
Histamine H3 receptor, sequence (Q9Y5N1 whole entry): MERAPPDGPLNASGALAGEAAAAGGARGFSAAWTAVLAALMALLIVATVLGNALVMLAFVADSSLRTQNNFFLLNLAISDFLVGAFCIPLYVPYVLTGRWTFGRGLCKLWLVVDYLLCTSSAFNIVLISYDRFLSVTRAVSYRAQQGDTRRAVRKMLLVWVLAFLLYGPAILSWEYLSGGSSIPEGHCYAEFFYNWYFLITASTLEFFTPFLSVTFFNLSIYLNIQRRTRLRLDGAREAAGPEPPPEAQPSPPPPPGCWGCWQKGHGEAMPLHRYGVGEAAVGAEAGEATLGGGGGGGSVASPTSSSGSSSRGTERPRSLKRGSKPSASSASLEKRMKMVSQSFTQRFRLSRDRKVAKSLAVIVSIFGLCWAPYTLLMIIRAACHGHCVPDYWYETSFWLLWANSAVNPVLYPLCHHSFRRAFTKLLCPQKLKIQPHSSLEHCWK
Histamine H2 receptor, sequence (P25021 whole entry): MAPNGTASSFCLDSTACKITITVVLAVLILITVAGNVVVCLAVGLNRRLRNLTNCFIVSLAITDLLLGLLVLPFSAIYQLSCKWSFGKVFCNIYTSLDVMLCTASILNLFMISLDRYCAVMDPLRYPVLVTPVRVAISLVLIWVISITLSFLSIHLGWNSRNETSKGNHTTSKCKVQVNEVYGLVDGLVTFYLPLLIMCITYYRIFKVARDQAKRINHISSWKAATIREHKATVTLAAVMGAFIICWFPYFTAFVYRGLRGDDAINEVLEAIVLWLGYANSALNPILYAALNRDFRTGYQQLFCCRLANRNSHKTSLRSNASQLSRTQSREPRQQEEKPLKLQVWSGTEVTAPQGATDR
Mu-type opioid receptor, sequence (P35372 whole entry): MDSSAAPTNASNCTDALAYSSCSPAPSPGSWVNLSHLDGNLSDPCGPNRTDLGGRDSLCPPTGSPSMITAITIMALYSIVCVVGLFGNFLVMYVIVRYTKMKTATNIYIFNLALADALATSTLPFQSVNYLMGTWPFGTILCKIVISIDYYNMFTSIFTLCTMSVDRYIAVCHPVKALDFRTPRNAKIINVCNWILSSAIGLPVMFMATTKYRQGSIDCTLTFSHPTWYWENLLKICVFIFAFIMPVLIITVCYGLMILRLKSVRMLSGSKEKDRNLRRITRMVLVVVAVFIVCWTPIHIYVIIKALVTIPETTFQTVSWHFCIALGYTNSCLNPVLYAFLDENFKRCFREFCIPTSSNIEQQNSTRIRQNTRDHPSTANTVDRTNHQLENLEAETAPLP

Row | SMILES | AC50 [1] [µM] | AC50 (Glucocorticoid receptor) [µM] | AC50 [2] [µM] | AC50 (Histamine H3 receptor) [µM] | AC50 (Endothelin-1 receptor) [µM] | AC50 [3] [µM] | AC50 (Mu-type opioid receptor) [µM] | AC50 (Histamine H2 receptor) [µM]
1 | O=c1[nH]cc(F)c(=O)[nH]1 [FLUOROURACIL] | > 30 | > 30 | > 30 | > 30 | > 30 |  |  | 
2 | CN1CC2c3ccccc3Oc3ccc(Cl)cc3C2C1 (centres undefined) [ASENAPINE] |  |  |  | > 30 | > 30 | > 30 | > 30 | 
3 | CS(=O)(=O)Nc1ccc([N+](=O)[O-])cc1Oc1ccccc1 [NIMESULIDE] | > 30 |  |  | > 30 | > 30 |  |  | > 30
4 | N[C@@H](Cc1cc(I)c(Oc2cc(I)c(O)c(I)c2)c(I)c1)C(=O)O [LEVOTHYROXINE] |  | > 30 |  | > 30 | > 30 | > 30 |  | > 30
5 | NCCCNCCSP(=O)(O)O [AMIFOSTINE] |  | > 30 |  | > 30 | > 30 |  |  | > 30
6 | CCOCC(O)COc1ccc(NC(=O)CC[S+](C)C)cc1 (centres undefined) |  |  |  | > 30 | > 30 | > 30 | > 30 | 
7 | O=NN(CCCl)C(=O)NC1CCCCC1 [LOMUSTINE] | > 30 |  | > 30 |  |  |  |  | 
8 | CN(C)CCc1c[nH]c2ccc(CS(=O)(=O)N3CCCC3)cc12 [ALMOTRIPTAN] |  |  |  | > 30 | > 30 | 13 |  | > 30
9 | O=C(O)[C@H]1/C(=C/CO)O[C@@H]2CC(=O)N21 [CLAVULANIC ACID] |  |  |  | > 30 | > 30 | > 30 | > 30 | 
10 | CC[N+](CC)(CCNC(=O)C(=O)NCC[N+](CC)(CC)Cc1ccccc1Cl)Cc1ccccc1Cl [AMBENONIUM] |  |  |  | 21 | > 30 | > 30 |  | > 30
11 | CCC[C@@]1(CCc2ccccc2)CC(O)=C([C@H](CC)c2cccc(NS(=O)(=O)c3ccc(C(F)(F)F)cn3)c2)C(=O)O1 |  |  |  | > 30 | > 30 | > 30 | > 30 | 
12 | CC(C)(CO)c1cc2cc(NC(=O)C3(c4ccc5c(c4)OC(F)(F)O5)CC3)c(F)cc2n1C[C@@H](O)CO [TEZACAFTOR] |  |  |  | > 30 | > 30 | > 30 | > 30 | 
13 | CC(=O)NC[C@H]1CN(c2ccc(N3CCOCC3)c(F)c2)C(=O)O1 [LINEZOLID] |  | > 30 |  | > 30 | > 30 |  |  | > 30
14 | CN(C)CCOC(c1ccc(Cl)cc1)c1ccccn1 (centres undefined) [CARBINOXAMINE] |  | > 30 |  | 3.5 | > 30 | > 30 |  | > 30
15 | O=C(O)[C@@H](S)[C@@H](S)C(=O)O | > 30 |  | > 30 |  |  |  |  | 
16 | CCOC(=O)Nc1ccc(NCc2ccc(F)cc2)nc1N [FLUPIRTINE] |  | > 30 |  | > 30 | > 30 | > 30 |  | > 30
17 | c1cnc2cc3c(cc2n1)[C@@H]1CNC[C@H]3C1 [VARENICLINE] |  |  |  | > 30 | > 30 | > 30 | > 30 | 
18 | CC(C)/N=c1\cc2n(-c3ccc(Cl)cc3)c3ccccc3nc-2cc1Nc1ccc(Cl)cc1 [CLOFAZIMINE] |  | 0.034 |  | > 30 | > 30 | > 30 |  | > 30
19 | Cn1cnc2c(F)c(Nc3ccc(Br)cc3F)c(C(=O)NOCCO)cc21 [BINIMETINIB] |  |  |  | > 30 | > 30 | > 30 | > 30 | 
20 | Nc1c2c(nc3ccccc13)CCCC2O (centres undefined) [VELNACRINE] |  |  |  | > 30 | > 30 | > 30 | > 30 | 
21 | C[C@H](CCC(=O)O)[C@H]1CC[C@H]2[C@@H]3[C@H](O)C[C@@H]4C[C@H](O)CC[C@]4(C)[C@H]3CC[C@]12C [CHENODIOL] |  |  |  | > 30 | > 30 | > 30 | > 30 | 
22 | COC(=O)CCc1ccc(OCC(O)CNC(C)C)cc1 (centres undefined) [ESMOLOL] |  | > 30 |  | > 30 | > 30 |  |  | > 30

Reference: ChEMBL document CHEMBL5291721, “A preclinical secondary pharmacology resource illuminates target-adverse drug reaction associations of marketed drugs” (Nat Commun, 2023)
